Experimental data taken from patent US12435059B2, “AMP-activated protein kinase inhibitors and methods of making and using the same” (The Regents of the University of Colorado, priority 2019, dated 2025).

Columns and labels:
Experiment in all cases: biochemical
Assay type in all cases: binding
[1] = target: 468 kinases (Homo sapiens, UniProt P08581); conditions: MET; read-out: % Inhibition @ 100 nM
[2] = target: 468 kinases (Homo sapiens, UniProt Q08345); conditions: DDR1; read-out: % Inhibition @ 100 nM
468 kinases (Homo sapiens, UniProt Q08345), sequence (Q08345 19-913 limits assumed): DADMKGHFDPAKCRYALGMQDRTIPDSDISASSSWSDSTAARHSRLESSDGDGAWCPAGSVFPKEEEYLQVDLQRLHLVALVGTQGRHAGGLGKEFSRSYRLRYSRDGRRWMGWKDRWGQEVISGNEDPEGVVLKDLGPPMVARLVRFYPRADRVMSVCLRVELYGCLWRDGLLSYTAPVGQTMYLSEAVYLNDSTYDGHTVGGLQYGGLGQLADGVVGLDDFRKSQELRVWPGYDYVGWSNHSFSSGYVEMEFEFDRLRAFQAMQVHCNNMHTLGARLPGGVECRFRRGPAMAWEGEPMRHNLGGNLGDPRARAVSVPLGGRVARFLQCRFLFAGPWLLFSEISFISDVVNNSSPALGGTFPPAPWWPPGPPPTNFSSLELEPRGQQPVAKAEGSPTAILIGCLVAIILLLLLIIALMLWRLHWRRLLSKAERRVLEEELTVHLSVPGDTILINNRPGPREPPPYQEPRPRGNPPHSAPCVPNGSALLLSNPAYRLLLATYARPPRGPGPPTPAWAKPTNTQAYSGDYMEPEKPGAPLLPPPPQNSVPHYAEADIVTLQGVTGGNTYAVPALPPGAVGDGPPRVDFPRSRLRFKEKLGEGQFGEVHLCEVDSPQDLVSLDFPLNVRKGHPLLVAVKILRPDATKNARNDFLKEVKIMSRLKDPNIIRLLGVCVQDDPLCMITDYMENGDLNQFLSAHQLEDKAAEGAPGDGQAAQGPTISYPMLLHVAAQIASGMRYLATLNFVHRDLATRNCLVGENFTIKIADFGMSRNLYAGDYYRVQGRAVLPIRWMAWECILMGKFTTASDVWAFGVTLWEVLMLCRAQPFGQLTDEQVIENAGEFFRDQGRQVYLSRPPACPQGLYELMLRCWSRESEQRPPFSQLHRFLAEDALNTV

[3] = target: 468 kinases (Homo sapiens, UniProt Q9H4A3); conditions: WNK1; read-out: % Inhibition @ 100 nM
[4] = target: 468 kinases (Homo sapiens, UniProt Q8IVH8); conditions: MAP4K3; read-out: % Inhibition @ 100 nM
[5] = target: 468 kinases (Homo sapiens, UniProt Q8TDX7); conditions: NEK7; read-out: % Inhibition @ 100 nM
[6] = target: 468 kinases (Homo sapiens, UniProt Q13882); conditions: BRK; read-out: % Inhibition @ 100 nM
[7] = target: 468 kinases (Homo sapiens, UniProt Q6P2M8); conditions: CAMK1B; read-out: % Inhibition @ 100 nM

468 kinases (Homo sapiens, UniProt P08581), sequence (P08581 25-1390 limits assumed): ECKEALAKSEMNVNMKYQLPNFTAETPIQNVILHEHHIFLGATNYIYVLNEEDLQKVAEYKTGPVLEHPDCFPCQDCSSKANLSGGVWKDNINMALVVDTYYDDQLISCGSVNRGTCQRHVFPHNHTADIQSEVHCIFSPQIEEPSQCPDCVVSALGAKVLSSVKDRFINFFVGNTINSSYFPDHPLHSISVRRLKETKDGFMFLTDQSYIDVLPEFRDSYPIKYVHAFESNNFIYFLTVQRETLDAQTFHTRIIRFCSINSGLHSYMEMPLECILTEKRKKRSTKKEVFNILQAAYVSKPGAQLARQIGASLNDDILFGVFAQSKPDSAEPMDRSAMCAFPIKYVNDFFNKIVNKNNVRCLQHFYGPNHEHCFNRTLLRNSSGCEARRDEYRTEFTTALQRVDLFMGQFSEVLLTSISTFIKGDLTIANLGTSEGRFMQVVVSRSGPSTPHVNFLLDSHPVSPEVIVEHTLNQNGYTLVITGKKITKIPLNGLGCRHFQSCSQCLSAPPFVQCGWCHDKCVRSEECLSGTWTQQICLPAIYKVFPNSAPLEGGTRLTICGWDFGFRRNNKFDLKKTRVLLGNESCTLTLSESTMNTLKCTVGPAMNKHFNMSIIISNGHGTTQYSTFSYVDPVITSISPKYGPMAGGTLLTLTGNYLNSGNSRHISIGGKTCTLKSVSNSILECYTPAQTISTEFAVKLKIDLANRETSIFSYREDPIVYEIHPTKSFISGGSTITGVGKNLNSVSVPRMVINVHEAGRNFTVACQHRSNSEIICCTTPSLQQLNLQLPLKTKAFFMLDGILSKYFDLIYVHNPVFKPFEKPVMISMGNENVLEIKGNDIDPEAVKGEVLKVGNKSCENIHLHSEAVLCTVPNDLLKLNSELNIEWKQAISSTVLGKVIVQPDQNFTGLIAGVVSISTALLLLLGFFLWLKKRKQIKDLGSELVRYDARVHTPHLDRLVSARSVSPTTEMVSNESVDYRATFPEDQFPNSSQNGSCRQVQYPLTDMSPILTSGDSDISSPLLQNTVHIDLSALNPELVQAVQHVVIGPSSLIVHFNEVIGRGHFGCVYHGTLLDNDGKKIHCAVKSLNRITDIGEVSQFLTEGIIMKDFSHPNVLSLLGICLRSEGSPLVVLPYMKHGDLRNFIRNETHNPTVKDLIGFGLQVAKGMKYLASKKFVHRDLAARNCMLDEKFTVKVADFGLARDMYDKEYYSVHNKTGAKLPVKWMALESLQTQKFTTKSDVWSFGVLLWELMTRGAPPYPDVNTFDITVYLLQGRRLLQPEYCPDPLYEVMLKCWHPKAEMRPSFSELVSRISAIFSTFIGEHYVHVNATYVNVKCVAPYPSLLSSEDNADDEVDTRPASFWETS

Row | SMILES | inhibition at 0.1 µM [1] | inhibition at 0.1 µM [2] | inhibition at 0.1 µM [3] | inhibition at 0.1 µM [4] | inhibition at 0.1 µM [5] | inhibition at 0.1 µM [6] | inhibition at 0.1 µM [7]
1 | CCN(CC)CCNC(=O)c1c(C)[nH]c(/C=C2\C(=O)Nc3ccc(CCO)cc32)c1C [Compound No. 10, (Z)—N-(2-(Diethylamino)ethyl)-5-((5-(2-hydroxyethyl)-2-oxoindolin-3-ylidene)methyl)-2,4-dimethyl-1H-pyrrole-3-carboxamide] | 13% | 0% | 0% | 74% |  |  | 
2 | CCN(CC)CCNC(=O)c1c(C)[nH]c(/C=C2\C(=O)Nc3ccc(CCC(N)=O)cc32)c1C [Compound No. 16, (Z)-5-((5-(3-Amino-3-oxopropyl)-2-oxoindolin-3-ylidene)methyl)-N-(2-(diethylamino)ethyl)-2,4-dimethyl-1H-pyrrole-3-carboxamide] |  |  |  |  | 5% | 1% | 30%
